According to EPA's ToxRefDB 2:

Assays:
rat [1] = details: Fertility (Segment I); Oral; Gavage/Intubation; dose end: 1 generation; group: parental; systemic / in life observation / body weight / body weight gain + systemic / in life observation / food consumption / food consumption
rabbit = details: Prenatal developmental toxicity study, Oral, Gavage/Intubation, dose end: 19 GD, group: maternal
primate [2] = details: Chronic toxicity, Oral, Gavage/Intubation, dose end: 182 day, group: systemic
primate [3] = details: Sub-acute repeat dose toxicity, Injection, Intravenous, dose end: 14 day, group: systemic
rat [4] = details: Sub-acute repeat dose toxicity, wistar, Oral, Gavage/Intubation, dose end: 14 day, group: systemic
rat [5] = details: Sub-acute repeat dose toxicity; wistar; Injection; Intravenous; dose end: 14 day; group: systemic; systemic / in life observation / clinical signs / skin discoloration + systemic / pathology microscopic / skin / inflammation + systemic / …
rat [6] = details: Sub-acute repeat dose toxicity, wistar, Oral, Feed, dose end: 14 day, group: systemic
dog [7] = details: Subchronic oral toxicity in nonrodent, beagle, Feed, dose end: 6 month
mouse [8] = details: Subchronic oral toxicity in rodents, cd1, Feed, dose end: 4 week, group: systemic
dog [9] = details: Chronic toxicity, beagle, Oral, Feed, dose end: 52 week
dog [10] = details: Subchronic oral toxicity in nonrodent, beagle, Feed, dose end: 13 week, group: systemic, systemic / hematology / erythrocyte (rbc) count differential / erythrocyte (rbc) + systemic / in life observation / body weight / body …
mouse [11] = details: Carcinogenicity, cd1, Oral, Feed, dose end: 97 week, group: systemic
rat [12] = details: Combined chronic toxicity/carcinogenicity, sprague dawley, Oral, Feed, dose end: 2 year
rat [13] = details: Prenatal developmental toxicity study, fischer, Oral, Feed, dose end: 15 GD
rat [14] = details: Subchronic oral toxicity in rodents, fischer, Feed, dose end: 13 week
rat [15] = details: Multigenerational reproductive toxicity study, other, Oral, Feed, dose end: 2 generation
[16] = reproductive / reproductive performance / aborted / aborted + systemic / in life observation / body weight / body weight + systemic / in …
[17] = systemic / clinical chemistry / protein / protein + systemic / hematology / red blood cell distribution width (rdw) / red blood cell …
[18] = systemic / pathology gross / lymph node / enlarged + systemic / in life observation / clinical signs / salivation + systemic / in life …
[19] = systemic / clinical chemistry / albumin / albumin + systemic / clinical chemistry / globulins / globulins + systemic / clinical chemistry / …
[20] = systemic / hematology / hematocrit (hct) / hematocrit (hct) + systemic / in life observation / body weight / body weight + systemic / in …
[21] = systemic / hematology / hematocrit (hct) / hematocrit (hct) + systemic / hematology / hemoglobin (hgb) / hemoglobin (hgb) + systemic / …
[22] = systemic / hematology / [other] / [other] + systemic / hematology / erythrocyte (rbc) count differential / erythrocyte (rbc) + systemic / …
[23] = systemic / hematology / erythrocyte (rbc) count differential / erythrocyte (rbc) + systemic / hematology / hematocrit (hct) / hematocrit (…
[24] = group: cholinesterase, cholinesterase / cholinesterase / cholinesterase / erythrocyte cholinesterase (che) + cholinesterase / cholinesterase / cholinesterase / …
[25] = group: systemic, systemic / clinical chemistry / alanine aminotransferase (alt/sgpt) / alanine aminotransferase (alt/sgpt) + systemic / organ weight / liver…
[26] = systemic / organ weight / spleen / absolute
[27] = group: cholinesterase, cholinesterase / cholinesterase / cholinesterase / brain cholinesterase (che) + cholinesterase / cholinesterase / cholinesterase / …
[28] = group: cholinesterase, cholinesterase / cholinesterase / cholinesterase / plasma cholinesterase (che)
[29] = group: systemic, systemic / hematology / erythrocyte (rbc) count differential / erythrocyte (rbc) + systemic / hematology / hematocrit (hct) / hematocrit (…
[30] = systemic / clinical chemistry / alanine aminotransferase (alt/sgpt) / alanine aminotransferase (alt/sgpt) + systemic / clinical chemistry / …
[31] = group: cholinesterase, cholinesterase / cholinesterase / cholinesterase / erythrocyte cholinesterase (che)
[32] = group: systemic, systemic / pathology microscopic / spleen / hematopoietic cell proliferation
[33] = group: systemic, systemic / pathology microscopic / spleen / hematopoietic cell proliferation + systemic / hematology / erythrocyte (rbc) count differential…
[34] = group: developmental, developmental / developmental malformation / bone / bipartite ossification + developmental / developmental malformation / general / crown-…
[35] = group: maternal, systemic / in life observation / body weight / body weight gain + reproductive / reproductive performance / pregnancy / pregnancy + …
[36] = group: cholinesterase, cholinesterase / cholinesterase / cholinesterase / brain cholinesterase (che)
[37] = group: systemic, systemic / clinical chemistry / calcium / calcium + systemic / hematology / leukocyte (wbc) count differential / leukocyte (wbc) + systemic…
[38] = group: offspring, developmental / offspring survival late / viability index / viability index
[39] = group: offspring, developmental / offspring survival late / viability index / viability index + systemic / in life observation / body weight / offspring (pup…
[40] = group: parental, systemic / in life observation / body weight / body weight + systemic / in life observation / body weight / body weight gain + systemic / in…

CCC(C)C(NC(=O)c1ccccc1SSc1ccccc1C(=O)NC(C(=O)O)C(C)CC)C(=O)O (stereo not drawn) [CI-1012]
LEL (rat [1]): 100 mg/kg/day | LOAEL (rat [1]): > 500 mg/kg/day | NEL (rat [1]): 50 mg/kg/day | NOAEL (rat [1]): ≥ 500 mg/kg/day | LOAEL (rabbit; [16]): > 250 mg/kg/day | NEL (rabbit; [16]): 25 mg/kg/day | NOAEL (rabbit; [16]): ≥ 250 mg/kg/day | LEL (rabbit; reproductive / reproductive performance / aborted / aborted + systemic / in life observation / body weight / body weight gain + systemic / …): 100 mg/kg/day | LOAEL (primate [2]; [17]): > 250 mg/kg/day | NOAEL (primate [2]; [17]): ≥ 250 mg/kg/day | LEL (primate [2]; [18]): 50 mg/kg/day | NEL (primate [2]; [18]): < 50 mg/kg/day | LEL (primate [3]; [19]): 75 mg/kg/day | NEL (primate [3]; [19]): 25 mg/kg/day | LOAEL (primate [3]; [20]): > 125 mg/kg/day | NOAEL (primate [3]; [20]): ≥ 125 mg/kg/day | LOAEL (rat [4]; [21]): > 1500 mg/kg/day | NEL (rat [4]; [21]): 100 mg/kg/day | NOAEL (rat [4]; [21]): ≥ 1500 mg/kg/day | LEL (rat [4]; systemic / organ weight / spleen / absolute + systemic / pathology microscopic / stomach / hyperplasia): 250 mg/kg/day | LEL (rat [5]): 25 mg/kg/day | LOAEL (rat [5]): > 100 mg/kg/day | NEL (rat [5]): < 25 mg/kg/day | NOAEL (rat [5]): ≥ 100 mg/kg/day | LOAEL (rat [6]; [22]): > 1500 mg/kg/day | NOAEL (rat [6]; [22]): ≥ 1500 mg/kg/day | LEL (rat [6]; [23]): 250 mg/kg/day | NEL (rat [6]; [23]): 100 mg/kg/day

CSC(C)=NOC(=O)N(C)SN(C)C(=O)ON=C(C)SC [Thiodicarb]
LEL (dog [7]; [24]): 45 mg/kg/day | LOAEL (dog [7]; [24]): 45 mg/kg/day | NEL (dog [7]; [24]): 15 mg/kg/day | NOAEL (dog [7]; [24]): 15 mg/kg/day | LEL (dog [7]; [25]): 45 mg/kg/day | LOAEL (dog [7]; [25]): 45 mg/kg/day | NEL (dog [7]; [25]): 15 mg/kg/day | NOAEL (dog [7]; [25]): 15 mg/kg/day | LOAEL (mouse [8]; systemic / in life observation / body weight / body weight gain): 734 mg/kg/day | LEL (mouse [8]; [26]): 6.2 mg/kg/day | NEL (mouse [8]; [26]): < 6.2 mg/kg/day | NOAEL (mouse [8]; systemic / organ weight / spleen / absolute + systemic / in life observation / body weight / body weight gain + systemic / in life …): 346 mg/kg/day | LOAEL (dog [9]; [27]): 12.8 mg/kg/day | NOAEL (dog [9]; [27]): 4.4 mg/kg/day | LEL (dog [9]; [28]): 4.5 mg/kg/day | NEL (dog [9]; [28]): < 4.5 mg/kg/day | LEL (dog [9]; [29]): 38.3 mg/kg/day | LOAEL (dog [9]; [29]): 38.3 mg/kg/day | NEL (dog [9]; [29]): 12.8 mg/kg/day | NOAEL (dog [9]; [29]): 12.8 mg/kg/day | LEL (dog [10]): 40 mg/kg/day | LOAEL (dog [10]): 40 mg/kg/day | NEL (dog [10]): 15 mg/kg/day | NOAEL (dog [10]): 15 mg/kg/day | LOAEL (mouse [11]; [30]): 1000 mg/kg/day | NOAEL (mouse [11]; [30]): 70 mg/kg/day | NEL (mouse [11]; systemic / in life observation / body weight / body weight + systemic / organ weight / kidney / absolute + systemic / organ weight / kidney…): 5 mg/kg/day | LEL (mouse [11]; systemic / pathology gross / spleen / enlarged + systemic / organ weight / liver / absolute + systemic / organ weight / spleen / absolute + …): 70 mg/kg/day | LEL (rat [12]; [31]): 15 mg/kg/day | LOAEL (rat [12]; [31]): 15 mg/kg/day | NEL (rat [12]; [24]): 4.5 mg/kg/day | NOAEL (rat [12]; [24]): 4.5 mg/kg/day | LEL (rat [12]; [32]): 12 mg/kg/day | LOAEL (rat [12]; [32]): 12 mg/kg/day | NEL (rat [12]; [33]): 3.3 mg/kg/day | NOAEL (rat [12]; [33]): 3.3 mg/kg/day | LEL (rat [13]; [34]): 100 mg/kg/day | LOAEL (rat [13]; [34]): 100 mg/kg/day | NEL (rat [13]; [34]): 3 mg/kg/day | NOAEL (rat [13]; [34]): 3 mg/kg/day | LEL (rat [13]; group: maternal, reproductive / reproductive performance / pregnancy / pregnancy): 3 mg/kg/day | LOAEL (rat [13]; group: maternal, systemic / in life observation / body weight / body weight gain): 1 mg/kg/day | NEL (rat [13]; [35]): 1 mg/kg/day | NOAEL (rat [13]; [35]): 0.5 mg/kg/day | LEL (rat [14]; [36]): 30 mg/kg/day | LOAEL (rat [14]; [36]): > 30 mg/kg/day | NEL (rat [14]; [36]): 10 mg/kg/day | NOAEL (rat [14]; [36]): ≥ 30 mg/kg/day | LOAEL (rat [14]; [37]): > 30 mg/kg/day | NEL (rat [14]; [37]): 3 mg/kg/day | NOAEL (rat [14]; [37]): ≥ 30 mg/kg/day | LEL (rat [14]; group: systemic, systemic / hematology / leukocyte (wbc) count differential / leukocyte (wbc) + systemic / in life observation / body weight / body weight): 10 mg/kg/day | LOAEL (rat [15]; [38]): 5 mg/kg/day | NOAEL (rat [15]; [38]): < 5 mg/kg/day | LEL (rat [15]; [39]): 5 mg/kg/day | NEL (rat [15]; [39]): < 5 mg/kg/day | LEL (rat [15]; [40]): 15 mg/kg/day | LOAEL (rat [15]; [40]): 15 mg/kg/day | NEL (rat [15]; [40]): 5 mg/kg/day | NOAEL (rat [15]; [40]): 5 mg/kg/day
